From patent publication US20240158446A1, “CYCLIC COMPOUND HAVING SELECTIVE INHIBITORY ACTION ON KRAS OVER HRAS AND NRAS” (CHUGAI SEIYAKU KABUSHIKI KAISHA, priority 2021, published 2024)
*1 amine or outer side, *2 acyl side, *3 side chain or, on linkers, in order; H or OH if unused. Where a SMILES comes first, the peptide text is derived from it. Bridges are numbered along the chain shown (N, C = ends). [ ]: non-standard residue; d: D form. hPhe(3,5-F2-4-CF3) = N[C@@H](CCc1cc(F)c(C(F)(F)F)c(F)c1)C(=O)O; NPrPhe(4-CF3) = CCCN[C@@H](Cc1ccc(C(F)(F)F)cc1)C(=O)O; NMeGly(cPent) = CN[C@H](C(=O)O)C1CCCC1; X8 = C[C@@](N[*:1])(C(=O)[*:2])C1CC1; X11 = CCC[C@](C)(N[*:1])C(=O)[*:2]; αMeCha = C[C@](N)(CC1CCCCC1)C(=O)O; αMeI = CC[C@H](C)[C@](C)(N)C(=O)O; αMeF = C[C@](N)(Cc1ccccc1)C(=O)O; NMeD = CN[C@@H](CC(=O)O)C(=O)O; NMeL = CN[C@@H](CC(C)C)C(=O)O; αMeL = CC(C)C[C@](C)(N)C(=O)O; αMeV = CC(C)[C@](C)(N)C(=O)O; Sar = CNCC(=O)O

Columns and labels:
[1] = molecular target: GDP-bound KRAS wild-type protein (Homo sapiens, UniProt P01116); assay: Binding to KRAS by surface plasmon resonance (SPR), Single Cycle Kinetics; conditions: SPR Single Cycle Kinetics, GDP-bound KRAS wild-type protein, 1:1 binding model; read-out: KRAS KD
[2] = molecular target: GDP-bound NRAS wild-type protein (Homo sapiens, UniProt P01111); assay: Binding to NRAS by surface plasmon resonance (SPR), Single Cycle Kinetics; conditions: SPR, GDP-bound NRAS wild-type protein vs GDP-bound KRAS wild-type protein
[3] = molecular target: GDP-bound HRAS wild-type protein (Homo sapiens, UniProt P01112); assay: Binding to HRAS by surface plasmon resonance (SPR), Single Cycle Kinetics; conditions: SPR, GDP-bound HRAS wild-type protein vs GDP-bound KRAS wild-type protein
Sequence of GDP-bound HRAS wild-type protein (P01112 whole entry): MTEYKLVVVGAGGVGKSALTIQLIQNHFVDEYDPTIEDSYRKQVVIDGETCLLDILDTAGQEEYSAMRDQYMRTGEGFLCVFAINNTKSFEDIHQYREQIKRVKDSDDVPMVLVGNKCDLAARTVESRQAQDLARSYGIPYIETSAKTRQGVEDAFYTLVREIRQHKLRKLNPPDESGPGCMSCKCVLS

Sequence of GDP-bound KRAS wild-type protein (P01116 whole entry): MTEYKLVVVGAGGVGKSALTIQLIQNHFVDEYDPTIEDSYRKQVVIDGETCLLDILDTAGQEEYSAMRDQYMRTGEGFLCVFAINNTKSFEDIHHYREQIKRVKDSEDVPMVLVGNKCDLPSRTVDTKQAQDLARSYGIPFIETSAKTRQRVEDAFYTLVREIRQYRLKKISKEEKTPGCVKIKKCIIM
Sequence of GDP-bound NRAS wild-type protein (P01111 whole entry): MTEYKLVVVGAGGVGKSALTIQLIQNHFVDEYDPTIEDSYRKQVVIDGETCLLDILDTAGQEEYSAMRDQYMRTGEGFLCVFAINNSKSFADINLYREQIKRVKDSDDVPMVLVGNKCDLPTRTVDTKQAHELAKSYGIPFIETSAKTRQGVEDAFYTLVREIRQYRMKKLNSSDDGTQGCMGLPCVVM

| SMILES | Kd [1] [nM] | NRAS/KRAS (ratio of KD value with respect to NRAS to KD value with respect to KRAS) [2] | HRAS/KRAS (ratio of KD value with respect to HRAS to KD value with respect to KRAS) [3] |
| --- | --- | --- | --- |
| CCO[C@@H]1C[C@H]2C(=O)NC3(CCC(F)(F)CC3)C(=O)N(C)[C@@H](C3CCCC3)C(=O)N(C)[C@H](C(=O)N3CCOCC3)CC(=O)N(C)[C@@H](CC(C)C)C(=O)N[C@@H]([C@@H](C)CC)C(=O)N(C)CC(=O)N(C)[C@H]3CCCCCN(C3=O)[C@@H](Cc3ccc(C(F)(F)F)cc3)C(=O)N(C)CC(=O)N[C@@H](CCc3cc(F)c(C(F)(F)F)c(F)c3)C(=O)N2C1 [PP0728] | 11 | B (a compound having 3 or more and less than 10 is denoted as B) | B (a compound having 3 or more and less than 10 is denoted as B) |
| CCO[C@@H]1C[C@H]2C(=O)NC3(CCC3)C(=O)N(C)[C@@H](C3CCCC3)C(=O)N(C)[C@H](C(=O)N(C)C)CC(=O)N(C)[C@@H](C)C(=O)N[C@@H]([C@H](C)CC)C(=O)N(C)CC(=O)N(C)[C@H]3CCCCN(C3=O)[C@@H](Cc3ccc(C(F)(F)F)cc3)C(=O)N(C)CC(=O)N[C@@H](CCc3cc(F)c(C(F)(F)F)c(F)c3)C(=O)N2C1 [PP0730] | 0.094 | C (A compound having a KD ratio of 0.1 or more and less than 3 is denoted as C) | C (A compound having a KD ratio of 0.1 or more and less than 3 is denoted as C) |
| CC[C@H](C)[C@@H]1NC(=O)[C@H](CC)N(C)C(=O)C[C@@H](C(=O)N(C)C)N(C)C(=O)[C@H](C2CCCC2)N(C)C(=O)C2(CCC2)NC(=O)[C@@H]2C[C@H](N3CCC(F)(F)CC3)CN2C(=O)[C@H](CCc2cc(F)c(C(F)(F)F)c(F)c2)NC(=O)CN(C)C(=O)[C@H](Cc2ccc(C(F)(F)F)cc2)N2CCCCC[C@@H](C2=O)N(C)C(=O)CN(C)C1=O [PP0731] | 1.6 | B (a compound having 3 or more and less than 10 is denoted as B) | B (a compound having 3 or more and less than 10 is denoted as B) |
| CC[C@H](C)[C@@H]1NC(=O)[C@H](CC)N(C)C(=O)C[C@@H](C(=O)N(C)C)N(C)C(=O)[C@H](C2CCCC2)N(C)C(=O)C2(CCC2)NC(=O)[C@@H]2C[C@H](N3CCC(F)(F)CC3)CN2C(=O)[C@H](CCc2cc(F)c(C(F)(F)F)c(F)c2)NC(=O)CN(C)C(=O)[C@H](Cc2ccc(C(F)(F)F)cc2)N2CCCC[C@@H](C2=O)N(C)C(=O)CN(C)C1=O [PP0732] | 0.039 | C (A compound having a KD ratio of 0.1 or more and less than 3 is denoted as C) | B (a compound having 3 or more and less than 10 is denoted as B) |
| CC[C@H](C)[C@@H]1NC(=O)[C@H](CC)N(C)C(=O)C[C@@H](C(=O)N(C)C)N(CC)C(=O)[C@H](C2CCCC2)N(C)C(=O)C2(CCC2)NC(=O)[C@@H]2C[C@@H](N3CCC(F)(F)CC3)CN2C(=O)[C@H](CCc2cc(F)c(C(F)(F)F)c(F)c2)NC(=O)CN(C)C(=O)[C@H](Cc2ccc(C(F)(F)F)cc2)N2CCCC[C@@H](C2=O)N(C)C(=O)CN(C)C1=O [PP0733] | 0.77 | B (a compound having 3 or more and less than 10 is denoted as B) | B (a compound having 3 or more and less than 10 is denoted as B) |
| CCCN1C(=O)CN(C)C(=O)CN(C)C(=O)[C@H]([C@@H](C)CC)NC(=O)[C@H](CC(C)C)N(C)C(=O)C[C@@H](C(=O)N(C)C)N(C)C(=O)[C@H](C2CCCC2)N(C)C(=O)[C@](C)(C2CC2)NC(=O)[C@@H]2CCCN2C(=O)[C@H](CCc2cc(F)c(C(F)(F)F)c(F)c2)NC(=O)CN(C)C(=O)[C@@H]1Cc1ccc(C(F)(F)F)cc1 [PP0734] ([NMeL]I[Sar][Sar][NPrPhe(4-CF3)][Sar][hPhe(3,5-F2-4-CF3)]P[X8][NMeGly(cPent)][NMeD]-NMe2; lactam N-11) | 0.38 | B (a compound having 3 or more and less than 10 is denoted as B) | C (A compound having a KD ratio of 0.1 or more and less than 3 is denoted as C) |
| CCCN1C(=O)CN(C)C(=O)CN(C)C(=O)[C@H]([C@@H](C)CC)NC(=O)[C@H](CC(C)C)N(C)C(=O)C[C@@H](C(=O)N(C)C)N(C)C(=O)[C@H](C2CCCC2)N(C)C(=O)[C@](C)(C(C)C)NC(=O)[C@@H]2CCCN2C(=O)[C@H](CCc2cc(F)c(C(F)(F)F)c(F)c2)NC(=O)CN(C)C(=O)[C@@H]1Cc1ccc(C(F)(F)F)cc1 [PP0735] ([NMeL]I[Sar][Sar][NPrPhe(4-CF3)][Sar][hPhe(3,5-F2-4-CF3)]P[αMeV][NMeGly(cPent)][NMeD]-NMe2; lactam N-11) | 0.27 | B (a compound having 3 or more and less than 10 is denoted as B) | C (A compound having a KD ratio of 0.1 or more and less than 3 is denoted as C) |
| CCCN1C(=O)CN(C)C(=O)CN(C)C(=O)[C@H]([C@@H](C)CC)NC(=O)[C@H](CC(C)C)N(C)C(=O)C[C@@H](C(=O)N(C)C)N(C)C(=O)[C@H](C2CCCC2)N(C)C(=O)[C@](C)([C@@H](C)CC)NC(=O)[C@@H]2CCCN2C(=O)[C@H](CCc2cc(F)c(C(F)(F)F)c(F)c2)NC(=O)CN(C)C(=O)[C@@H]1Cc1ccc(C(F)(F)F)cc1 [PP0736] ([NMeL]I[Sar][Sar][NPrPhe(4-CF3)][Sar][hPhe(3,5-F2-4-CF3)]P[αMeI][NMeGly(cPent)][NMeD]-NMe2; lactam N-11) | 1.8 | B (a compound having 3 or more and less than 10 is denoted as B) | C (A compound having a KD ratio of 0.1 or more and less than 3 is denoted as C) |
| CCCN1C(=O)CN(C)C(=O)CN(C)C(=O)[C@H]([C@@H](C)CC)NC(=O)[C@H](CC(C)C)N(C)C(=O)C[C@@H](C(=O)N(C)C)N(C)C(=O)[C@H](C2CCCC2)N(C)C(=O)[C@](C)(CCC)NC(=O)[C@@H]2CCCN2C(=O)[C@H](CCc2cc(F)c(C(F)(F)F)c(F)c2)NC(=O)CN(C)C(=O)[C@@H]1Cc1ccc(C(F)(F)F)cc1 [PP0737] ([NMeL]I[Sar][Sar][NPrPhe(4-CF3)][Sar][hPhe(3,5-F2-4-CF3)]P[X11][NMeGly(cPent)][NMeD]-NMe2; lactam N-11) | 0.55 | B (a compound having 3 or more and less than 10 is denoted as B) | C (A compound having a KD ratio of 0.1 or more and less than 3 is denoted as C) |
| CCCN1C(=O)CN(C)C(=O)CN(C)C(=O)[C@H]([C@@H](C)CC)NC(=O)[C@H](CC(C)C)N(C)C(=O)C[C@@H](C(=O)N(C)C)N(C)C(=O)[C@H](C2CCCC2)N(C)C(=O)[C@](C)(CC(C)C)NC(=O)[C@@H]2CCCN2C(=O)[C@H](CCc2cc(F)c(C(F)(F)F)c(F)c2)NC(=O)CN(C)C(=O)[C@@H]1Cc1ccc(C(F)(F)F)cc1 [PP0738] ([NMeL]I[Sar][Sar][NPrPhe(4-CF3)][Sar][hPhe(3,5-F2-4-CF3)]P[αMeL][NMeGly(cPent)][NMeD]-NMe2; lactam N-11) | 0.64 | B (a compound having 3 or more and less than 10 is denoted as B) | B (a compound having 3 or more and less than 10 is denoted as B) |
| CCCN1C(=O)CN(C)C(=O)CN(C)C(=O)[C@H]([C@@H](C)CC)NC(=O)[C@H](CC(C)C)N(C)C(=O)C[C@@H](C(=O)N(C)C)N(C)C(=O)[C@H](C2CCCC2)N(C)C(=O)[C@](C)(CC2CCCCC2)NC(=O)[C@@H]2CCCN2C(=O)[C@H](CCc2cc(F)c(C(F)(F)F)c(F)c2)NC(=O)CN(C)C(=O)[C@@H]1Cc1ccc(C(F)(F)F)cc1 [PP0739] ([NMeL]I[Sar][Sar][NPrPhe(4-CF3)][Sar][hPhe(3,5-F2-4-CF3)]P[αMeCha][NMeGly(cPent)][NMeD]-NMe2; lactam N-11) | 3.7 | B (a compound having 3 or more and less than 10 is denoted as B) | C (A compound having a KD ratio of 0.1 or more and less than 3 is denoted as C) |
| CCCN1C(=O)CN(C)C(=O)CN(C)C(=O)[C@H]([C@@H](C)CC)NC(=O)[C@H](CC(C)C)N(C)C(=O)C[C@@H](C(=O)N(C)C)N(C)C(=O)[C@H](C2CCCC2)N(C)C(=O)[C@](C)(Cc2ccccc2)NC(=O)[C@@H]2CCCN2C(=O)[C@H](CCc2cc(F)c(C(F)(F)F)c(F)c2)NC(=O)CN(C)C(=O)[C@@H]1Cc1ccc(C(F)(F)F)cc1 [PP0740] ([NMeL]I[Sar][Sar][NPrPhe(4-CF3)][Sar][hPhe(3,5-F2-4-CF3)]P[αMeF][NMeGly(cPent)][NMeD]-NMe2; lactam N-11) | 0.47 | B (a compound having 3 or more and less than 10 is denoted as B) | C (A compound having a KD ratio of 0.1 or more and less than 3 is denoted as C) |
